Assay results taken from patent US8765774B2, “3-arylquinazolin-4-one compounds for combating invertebrate pests” (BASF SE, priority 2009, dated 2014).

Assays:
Type in all cases: in vivo
[1] = tested on: Kanzawa Spider Mite (Tetranychus kanzawai); assay: Kanzawa spider mite, sprayed potted cotton plants (II.7.a); details: 300 ppm; population reduction assessed after 24, 72 and 120 hours; in comparison with untreated controls
Protocol: The active compounds were dissolved at the desired concentration in a mixture of 1:1 (vol:vol) acetone:water. The test solutions were prepared at the day of use.
Potted cotton plants colonized with approximately 50 mites of various stages were sprayed after the pest population had been recorded. Population reductions (or increases) after 24, 72 and 120 hours were assessed.

[2] = tested on: Diamond Back Moth (Plutella xylostella); assay: Diamond back moth, larvae sprayed with test solution (II.1.a); details: 500 ppm; third-instar larvae sprayed; mortality recorded 24, 72 and 120 hours after treatment; in comparison with untreated controls
Protocol: The active compound was dissolved at the desired concentration in a mixture of 1:1 (vol:vol) acetone:water. The test solution was prepared at the day of use.
Ten, third-istar larvae are sprayed with 1 ml test solution and introduced to untreated leaves held in a petri dish that was lined with moist filter paper. Mortality was recorded 24, 72 and 120 hours after treatment.

[3] = tested on: Cowpea Aphid (Aphis craccivora); assay: Activity against cowpea aphid, sprayed potted cowpea plants (II.3); details: population reduction assessed after 72 hours, in comparison with untreated controls
Protocol: The active compounds were formulated in 50:50 (vol:vol) acetone:water. The test solution was prepared at the day of use.
Potted cowpea plants colonized with 100-150 aphids of various stages were sprayed after the pest population had been recorded. Population reduction was assessed after 72 hours.

Work on `Cc1cc(F)c(-n2cnc3ccccc3c2=O)cc1SCC(F)(F)F` [Compound I-1, 2-(2,2,2-trifluoroethylsufanyl)-4-(4-oxo-quinazolin-3-yl)-5-fluoro-toluol] yielded a mortality [1] of 100%.
With `Cc1cc(F)c(-n2cnc3ccccc3c2=O)cc1[S+]([O-])CC(F)(F)F` (stereo not shown) [Compound I-2, 2-(2,2,2-trifluoroethylsufinyl)-4-(4-oxo-quinazolin-3-yl)-5-fluoro-toluol] the mortality [1] was 100%.
In the case of `Cc1cc(F)c(-n2c(C)nc3ccccc3c2=O)cc1SCC(F)(F)F` [Compound I-3, 2-(2,2,2-trifluoroethylsufanyl)-4-(2-methyl-4-oxo-quinazolin-3-yl)-5-fluoro-toluol], the mortality [2] was 100%.
For `O=c1c2ccccc2ncn1-c1ccnc(SCC(F)(F)F)n1` [Compound I-6, 3-[2-(2,2,2-Trifluoro-ethylsulfanyl)-pyrimidin-4-yl]-3H-quinazolin-4-one], the mortality at 300 ppm [3] was at least 50%.
